Measured values published in patent publication US11988734B2, “Method and application for measuring the intracellular water transmembrane efflux rate, and measurement method and system for magnetic resonance imaging biomarker of glioma” (ZHEJIANG UNIVERSITY, priority 2022, dated 2024).
Values joined by “and” are separate entries in the source; they are usually repeats but may differ in a detail not shown here. Equal entries are not always repeated. “Also recorded” adds a separate entry of the source.

Key:
[1] = test system: C6 cells; test: Water exchange DCE-MRI measurement of intracellular water efflux rate constant kio in C6 cells; type: cell-based; details: for kio: 50 μM TMZ, control 10.9±0.7; for decrease of kio vs control: TMZ
Procedure: (§1) C6 cells were treated with TMZ (50 μM) and treated with 50 μM TMZ dissolved in 0.1% DMSO […] or 0.1% DMSO in complete culture medium. The magnetic resonance parameters kio and physiological information (cell morphology, AQP4 expression, cell activity and cell migration distance) were obtained on the third and seventh days of TMZ (50 μM) treatment.
(§2) In order to obtain the cell samples for MRI, U87MG (0.5˜1×10^5) or C6 (1˜2×10^6) cell lines were first washed with DPBS, disassociated by adding 1 mL of 0.25% Trypsin-EDTA solution to 60 mm dish and incubating for 0.5 to 1.0 min, and then resuspended with 2 mL PBS (or PBS supplemented with 5 mM Gadoteridol). After centrifuging the cell sample with relative centrifugal force of 150 g at 4° C. for 5 min, the sample was resuspended in a custom MR compatible glass sample tube (diameter 5 mm×length 20 mm) with 250˜300 μL PBS (or PBS+5 mM Gadoteridol). We then centrifuged the MR tubes at 300 g at 4° C. for 2 min before carrying out MRI. For AQP4 inhibition experiments, cells were pre-cultured with 6.4 μM TGN020 (Axon, CAS 51987-99-6) dissolved in PBS for 15 mins or 1 mM ouabain (Sigma, CAS 11018-89-6) for 15 mins, respectively; the PBS in the above steps was replaced with PBS+inhibitor.
The 0.5 T desktop MRI measurement system for cell culture in vitro (Pure Devices GmbH, Germany) includes: the MRI system installed on the anti-vibration platform and the autonomous nuclear magnetic tube containing live cell precipitation from the incubator, 5% CO2+95% O2 and PBS supernatant to ensure high survival rate, and the temperature monitoring optical fiber is installed. All MRI measurements were performed at room temperature (23.5+/−1° C.).
Water exchange DCE-MRI was performed with an inversion-recovery prepared turbo-spin-echo (IR-TSE) sequence and an extracellular Gd-based contrast agent, Gadoteridol (Prohance™ Bracco Diagnostics, Inc., Princeton, NJ). The following scan parameters were used in water exchange DCE-MRI: echo time (TE) 3 ms, turbo factor 16, FOV 12.8×12.8 mm^2, matrix size 32×32. Water exchange DCE-MRI was performed with two CA concentrations, 0 and 5 mM. At [CA]=5 mM, IR-TSE were measured with 13 IR delays (10 ms, 30 ms, 50 ms, 70 ms, 90 ms, 150 ms, 200 ms, 400 ms, 600 ms, 800 ms, 1 s, 5 s, 5 s) with repetition time TR varying together (TR=IR delay+5 s) and single repetition on each IR delay. At [CA]=0 mM, the longest IR delays were extended to 10 s with TR extended simultaneously (TR=IR delay+10 s) to guarantee full recovery of the longitudinal magnetization in each TR. The scan time for a single acquisition at [CA]=0 mM and 5 mM is 10 min and 5.5 min, respectively. Two acquisitions on [CA]=5 mM were acquired and averaged.
IR-TSE signal (M) at each IR delay was taken as the average signal of the cell pellet ROI. Then the signal was subtracted and normalized by the equilibrium magnetization (M0, taken as M with the longest IR delay). We define M as the normalized signal for future SS model analysis: M=(M−M0)/M0 (1)
A two-site-exchange (2SX) SS model was used here with details as described previously ^6. Briefly, the MR signal is considered as the sum of signals of two water sites—intra- and extracellular water, each site is assumed to have a similar longitude recovery rate R1, with pi and po as the mole fraction of water molecules in the intra- and extracellular space, respectively, and pi+po=1. Then the normalized IR-TSE signal M can be described with a biexponential function, M=psmexp(−tR1,sm)+(1−psm)exp(−tR1,lar) (2)
where R1,sm and R1,lar are the apparently smaller and larger R1, respectively, and psm, is the apparent fraction of MR signals showing R1,sm. The three parameters, R1,sm, R1,lar and psm, are determined by […] physical parameters including pi, the intracellular water efflux rate constant (kio), and the R1 of intracellular water (R1i), and the CA-dependent extracellular water R1 (R1o). […]

[2] = test system: U87MG cell line; test: Water exchange DCE-MRI measurement of kio in U87MG cell line with AQP4 inhibition; type: cell-based; details: Phase I (adaptation period), 6.4 μM TGN020, n=6
Procedure: as §2, with “For AQP4 inhibition experiments, cells were pre-cultured with 6.4 μM TGN020 (Axon, CAS 51987-99-6) dissolved in PBS for 15 mins or 1 mM ouabain (Sigma, CAS 11018-89-6) for 15 mins, respectively; the PBS in the above steps was replaced with PBS+inhibitor.” left out
Water exchange DCE-MRI was performed with an inversion-recovery prepared turbo-spin-echo (IR-TSE) sequence and an extracellular Gd-based contrast agent, Gadoteridol (Prohance™ Bracco Diagnostics, Inc., Princeton, NJ). […] At [CA]=5 mM, IR-TSE were measured with 13 IR delays (10 ms, 30 ms, 50 ms, 70 ms, 90 ms, 150 ms, 200 ms, 400 ms, 600 ms, 800 ms, 1 s, 5 s, 5 s) with repetition time TR varying together (TR=IR delay+5 s) and single repetition on each IR delay. […]
where R1,sm and R1,lar are the apparently smaller and larger R1, respectively, and psm, is the apparent fraction of MR signals showing R1,sm. […] For each condition (e.g., C6 at TMZ 0, 3, and 7 day), at least three samples were measured with IR-TSE at [CA]=0 mM as the baseline data. […]

[3] = biological target: T1, AQP4 (Rattus norvegicus, UniProt P47863); test: Pharmacological inhibition of AQP4 in subcutaneous rat glioma model (C6), in vivo water exchange DCE-MRI
T1 construct: C6 cell line was subcutaneously implanted into the right leg of Sprague Dawley (SD) rats to establish a glioma animal model; from tissue; host or cells: Subcutaneous C6 glioma tumour in Sprague Dawley rats (in vivo)
Procedure: All experimental protocols for animal studies were approved by the Animal Experimentation Committee of Zhejiang University. Adult (7˜8-week-old) male Sprague Dawley (SD) rats were obtained from the Laboratory Animal Center of Zhejiang University. During glioma cell introduction, rats were anesthetized with a mixture of 2% (v/v) isoflurane in air (R500IE, RWD Life Science Co., Ltd,), and then 100 μl PBS containing 5×10^6 C6 cells and 1% antibiotics (P/S) were slowly injected under the skin at the right leg. Seven to nine days after tumour implementation, the animals were taken for 7 T MRI test and the tumour was quickly removed after and fixed for IHC after MRI.
Here TGN020 was used to inhibit AQP4 in rat glioma model. For TGN020 group, each animal was treated with TGN020 (3 mg/kg, 4 ml/kg body weight) in the tail vein 15 minutes before water exchange DCE-MRI. In order to increase the solubility, before intravenous injection, TGN020 was repeatedly ultrasound and vortex at 37° C. to promote dissolution and dispersion in saline (0.9% NaCl). One day before TGN020 treatment, the same animal was treated with normal saline (4 ml/kg), and then water exchange DCE-MRI data collection was performed. In the control group, animals were treated with the same volume of normal saline on the first day and the second day. Here, the small volume infusion needs to be flushed after infusion to ensure the safety and treatment effect of rats.
In vivo water exchange DCE-MRI is achieved through clinical use of Gd-based CA (dimethylamine gadolinate, Guangzhou, China). In order to better estimate kio, the invention uses the method of two injections of CA, which improves the accuracy of kio estimation by 10 times compared with the traditional method of single injection of contrast agent. In addition, the steady-state multi-gradient echo (MGE) sequence is used to overcome the potential T2* artifacts caused by contrast agents. […] Finally, the fitting error of SS model is carefully analyzed to remove kio with large fitting error.

[4] = test system: AQP4; test: AQP4 expression (immunofluorescence, fluorescence intensity rfu) in C6 cell line during TMZ treatment; type: cell-based; details: C6 cells, 50 μM TMZ
Procedure: as §1
After the MRI tests, the cell line sample was immediately fixed by 4% paraformaldehyde (PFA) at room temperature for 20 min, then stored in 0.5% PFA (4° C.). For immunofluorescence (IF) testing, protocols following: samples were (1) blocked with 10% goat serum (Beyotime, CO265) for one hour at room temperature; (2) incubated with primary antibody overnight at 4° C. and the secondary antibody at room temperature for 1 h; (3) stained with DAPI (4′,6-diamidino-2-phenylindole, Sigma-Aldrich, 1:1000) at room temperature for 5 min; and (4) washed three times with PBS. […] Data were collected from two fluorescence channels: one in which DAPI was characterized with excitation/emission wavelengths 375 nm/435 to 485 nm and the other with either […] (excitation/emission 470 nm/514 to 567 nm) or green (excitation/emission 525 nm/565 to 650 nm) channels. Fluorescence images were taken from either a Fluorescence Inversion Microscope System (cellSensV1.13, Olympus, Japan) or a confocal laser scanning microscope (fv1200, Olympus, Japan).

[5] = test system: C6 cells; test: Slow cycling cell (SCC) fraction by OG cell tracer in C6 cells; type: cell-based; details: before TMZ 6.0 (±0.4)%
From the text: The present invention uses the method of cell tracer to distinguish FCC and SCC. The OG (Oregon Green 488 Carboxylic Acid Diacetate, Succinimidyl Ester) and CTV (CellTrace™ Violet reagent, ThermoFisher scientific, Invitrogen C34557) were used to distinguish FCCs (low OG or CTV intensity) and SCCs (high OG or CTV intensity, e.g., the CTV intensity>10^4) in C6 cell lines and human glioma primary cell culture, respectively. Populations of FCCs and SCCs were identified and isolated in cell cultures based on their capacity to retain OG or CTV. Briefly, the cells were first suspended in PBS containing 25 μM OG and incubated in the dark at 37° C. for 10 min. After incubation, cell samples were washed in DMEM to remove residual dye and then returned to the culturing medium for three days until imaging. Before fluorescence imaging, samples were fixed in 4% PFA for 30 min and then stained with DAPI. The fraction of SCCs was defined as the fraction of OG positive cells in the DAPI positive cells. For primary human glioma primary cell cultures, the cells were stained with 5 μM CTV (the same methods as OG) for three days. Then, the cells fluorescence intensity statistics and counts were measured by a Fluorescence Activating Cell Sorter System (FACS) (LSRFortessa X-20, BD, USA).

T1 sequence (P47863 whole entry): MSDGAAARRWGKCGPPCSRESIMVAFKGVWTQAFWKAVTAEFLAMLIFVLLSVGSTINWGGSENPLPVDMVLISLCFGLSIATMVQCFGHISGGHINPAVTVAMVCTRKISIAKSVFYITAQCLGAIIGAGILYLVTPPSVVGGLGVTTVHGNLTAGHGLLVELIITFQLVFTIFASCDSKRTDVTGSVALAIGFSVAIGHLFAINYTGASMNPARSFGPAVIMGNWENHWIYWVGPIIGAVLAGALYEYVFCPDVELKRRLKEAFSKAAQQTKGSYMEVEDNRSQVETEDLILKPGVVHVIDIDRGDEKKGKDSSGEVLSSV

| Structure (SMILES) | effect of AQP4 inhibition on kio ([1]; C6 cells on 7th day of TMZ treatment, 6.4 μM TGN020) | effect of AQP4 inhibition on kio [2] | average kio of the whole tumor ([3]; TGN020 3 mg/kg tail vein 15 min before DCE-MRI, n=9, saline 6.3±0.6, 3 mg/kg) | decrease of average kio of the whole tumor ([3]; TGN020 3 mg/kg vs saline in same animal, n=9, p=0.0246) | average K^trans of the whole tumor ([3]; TGN020 3 mg/kg, saline 0.060±0.015) | kio ([1]; C6 cells, seventh day of treatment, n=7) | kio ([1]; C6 cells, third day of treatment, n=6) | decrease of kio (absolute) ([1]; C6 cells, 7th day of TMZ treatment vs control) | decrease of kio vs control ([1]; C6 cells, seventh day) | decrease of kio vs control ([1]; C6 cells, third day) | decrease of AQP4 expression level, fluorescence intensity (rfu) ([4]; seventh day of treatment) | decrease of AQP4 expression level, fluorescence intensity (rfu) ([4]; third day of treatment) | proportion of SCC (OG+) ([5]; seventh day of TMZ treatment) | proportion of SCC (OG+) ([5]; third day of TMZ treatment) |
| --- | --- | --- | --- | --- | --- | --- | --- | --- | --- | --- | --- | --- | --- | --- |
| O=C(Nc1nncs1)c1cccnc1 [TGN020] | could not further reduce kio; also recorded: did not lead to further reduction of kio | will not lead to a significant decrease in kio; also recorded: will not lead to further reduction of kio | 5 ± 0.7 s⁻¹ and 3.5 ± 0.7 s⁻¹ | 43% | 0.045 ± 0.024 min⁻¹ | – | – | – | – | – | – | – | – | – |
| Cn1nnc2c(C(N)=O)ncn2c1=O [TMZ, temozolomide] | – | – | – | – | – | 5.8 ± 0.2 s⁻¹ | 6.7 ± 0.8 s⁻¹ | 4.9 s⁻¹ | 45.5% | 37.3% | 85.9% | 42.5% | 28.9 (±0.3) % | 16.0 (±0.1) % |
